Measured values published in US9101573B2, “Lanthionine synthetase component C-like proteins as molecular targets for preventing and treating diseases and disorders” (VIRGINIA TECH INTELLECTUAL PROPERTIES, INC., priority 2010, dated 2015).

Legend:
PPAR γ = PPAR γ reporter activity assay on 3T3-L1 pre-adipocytes; assay type: cell-based; settings: 2.5 μM, 24 hours, vs untreated cells
Description: 3T3-L1 cells were plated into white, opaque 96-well plates (BD) 24 hours before transfection and grown in DMEM containing 10% fetal bovine serum (FBS) until 70% confluence. Cells were then co-transfected with 0.2 μg pCMX.PPAR γ expression plasmid expression plasmid, 0.2 μg pTK.PPRE3x luciferase reporter plasmid driven by the PPRE-containing Acyl-CoA oxidase promoter and 0.2 μg pRL reporter control using the Lipofectamine 2000 transfection reagent (Invitrogen). After 48 hr incubation at 37° C., cells were then treated in replicates of 8 with NSC61610 2.5 μM or DMSO control and incubated for 24 hr at 37° C. After incubation, cells were harvested in reporter lysis reagent and luciferase activity was determined using the Dual Luciferase II reporter assay system (Promega, Madison, Wis.) in Modulus 96-well luminometer (Turner Biosystems, Sunnyvale, Calif.). All values were normalized to control wells to calculate relative luciferase activity.

[1] = tested on: mouse model of DSS-induced colitis, PPAR γ fl/fl Cre−, CD4-Cre+ and Lysozyme M-Cre+ mice; assay: DSS colitis in tissue-specific PPAR γ null mice; assay type: in vivo
Description: PPAR γ fl/fl MMTV-Cre− (n=20), tissue-specific PPAR γ fl/fl CD4-Cre+ ([…]) PPAR γ null mice (n=20) and tissue-specific PPAR γ fl/fl Lsozyme M-Cre+ (macrophage-deficient) PPAR γ null mice (n=20) littermates in a C57BL/6J background were generated by using the Cre-lox recombination system as previously described. The mice were housed at the animal facilities at Virginia Tech. in a room maintained at 75° F., with a 12:12 h light-dark cycle starting from 6:00 AM. In each group, 20 mice were randomly divided into two groups: a control group including 10 mice and a NSC61610 treatment groups containing 10 mice respectively. The three treatment groups received 20 mg/kg NSC61610 by orogastric gavage for 6 days. All the mice (n=60) were challenged with drinking water containing 2.5% DSS, 36,000-44,000 molecular weight (ICN Biomedicals, Aurora, Ohio) for 6 days. Mice were weighed on a daily basis and examined for clinical signs of disease associated with colitis (i.e., perianal soiling, rectal bleeding, diarrhea, and piloerection). For the DSS challenge, the disease activity indices and rectal bleeding scores were calculated using a modification of a previously published compounded clinical score. Briefly, disease activity index consisted of a scoring for diarrhea and lethargy (0-3), whereas rectal bleeding consisted of a visual observation of blood in feces and the perianal area (0-4). Mice in the DSS study were euthanized on day 6 of the DSS challenge. On day 6, mice were euthanized by CO2 narcosis followed by secondary thoracotomy and blood was withdrawn from the heart. Colon, spleen, and MLN were scored based on size and macroscopic inflammatory lesions (0-3), excised, and then crushed to produce single-cell suspensions for flow cytometry.

[2] = tested on: pandemic 2009 H1N1 influenza A California/09 virus; assay: Pandemic H1N1 influenza virus infection in mice; assay type: in vivo
[3] = tested on: mouse model of DSS-induced colitis; assay: DSS-induced colitis (experimental IBD) in C57BL/6J wild-type mice; assay type: in vivo
Description: Six to eight week old C57BL/6J wild-type mice (n=38) were housed at the animal facilities at Virginia Tech. in a room maintained at 75° F., with a 12:12 h light-dark cycle starting from 6:00 AM. Mice were randomly divided into four groups: a control group including 8 mice and the other three NSC61610 treatment groups containing 10 mice each. The three treatment groups received 0.5, 10 or 20 mg/kg NSC61610 by orogastric gavage for 7 days. All the mice were challenged with drinking water containing 2.5% DSS, 36,000-44,000 molecular weight (ICN Biomedicals, Aurora, Ohio) for 7 days. Mice were weighed on a daily basis and examined for clinical signs of disease associated with colitis (i.e., perianal soiling, rectal bleeding, diarrhea, and piloerection). For the DSS challenge, the disease activity indices and rectal bleeding scores were calculated using a modification of a previously published compounded clinical score. Briefly, disease activity index consisted of a scoring for diarrhea and lethargy (0-3), whereas rectal bleeding consisted of a visual observation of blood in feces and the perianal area (0-4). Mice in the DSS study were euthanized on day 7 of the DSS challenge. On day 7, mice were euthanized by CO2 narcosis followed by secondary thoracotomy and blood was withdrawn from the heart. Colon, spleen, and MLN were scored based on size and macroscopic inflammatory lesions (0-3), excised, and then crushed to produce single-cell suspensions for flow cytometry.
Colonic sections were fixed in 10% buffered neutral formalin, later embedded in paraffin, and then sectioned ([…]) and stained with H&E stain for histological examination. Colons were blindly graded with a compounded histological score including the extent of (1) leukocyte infiltration. (2) mucosal thickening, and (3) epithelial cell erosion. The sections were graded with a score of 0-4 for each of the previous categories and data were analyzed as a normalized compounded score.
Total RNA was isolated from colons using the RNA isolation Minikit (Qiagen) according to the manufacturer's instructions. Total RNA ([…]) was used to generate complementary DNA (cDNA) template using the iScript cDNA Synthesis Kit (Bio-Rad, Hercules, Calif.). The total reaction volume was 20 μL with the reaction incubated as follows in an MJ MiniCycler: 5 min at 25° C., 30 min at […], 5 min at 85° C., and hold at 4° C. PCR was performed on the cDNA using Taq DNA polymerase (Invitrogen, Carlsbad, Calif.) and using previously described conditions. Each gene amplicon was purified with the MiniElute PCR Purification Kit (Qiagen) and quantitated on an agarose gel by using a DNA mass ladder (Promega). These purified amplicons were used to optimize real-time (RT)-PCR conditions and to generate standard curves. Primer concentrations and annealing temperatures were optimized for the iCycler iQ system (Bio-Rad) for each set of primers using the system's gradient protocol. PCR efficiencies were maintained between 92 and 105% and correlation coefficients above 0.98 for each primer set during optimization and also during the real-time PCR of sample DNA.
Complementary DNA (cDNA) concentrations for genes of interest were examined by real-time quantitative PCR using an iCycler IQ System and the iQ SYBR green supermix (Bio-Rad). A standard curve was generated for each gene using 10-fold dilutions of purified amplicons starting at 5 pg of cDNA and used later to calculate the starting amount of target cDNA in the unknown samples. SYBR green I is a general double-stranded DNA intercalating dye and may therefore detect non-specific products and primer/dimers in addition to the amplicon of interest. In order to determine the number of products synthesized during the real-time PCR, a melting curve analysis was performed on each product. Real-time PCR was used to measure the starting amount of nucleic acid of each unknown sample of cDNA on the same 96-well plate. […]

[4] = biological target: T1, ligand-binding domain (LBD) of PPAR γ (Homo sapiens, UniProt P37231); assay: Binding of ABA to PPAR γ LBD (unpublished data)
T1 sequence (P37231 238-503 limits assumed): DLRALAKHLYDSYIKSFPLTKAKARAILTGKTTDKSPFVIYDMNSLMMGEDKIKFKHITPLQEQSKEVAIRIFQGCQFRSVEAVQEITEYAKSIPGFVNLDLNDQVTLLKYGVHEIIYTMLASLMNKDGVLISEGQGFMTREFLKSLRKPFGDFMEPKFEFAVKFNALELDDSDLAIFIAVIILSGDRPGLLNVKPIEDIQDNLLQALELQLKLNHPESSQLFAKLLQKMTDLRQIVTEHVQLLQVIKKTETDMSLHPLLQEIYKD

LANCL2 = biological target: T2, LANCL2 (Mus musculus, UniProt Q9JJK2); assay: Western blot binding assay between ABA and LANCL2; settings: RAW 264.7 macrophages treated with ABA for 20 minutes; re-probing western blot; control without ABA showed no band
T2 construct: Proteins were extracted from Raw 264.7 Macrophage using Radio-Immunoprecipitation Assay buffer; endogenous in cells; host or cells: RAW 264.7 macrophages
T2 sequence (Q9JJK2 1-450): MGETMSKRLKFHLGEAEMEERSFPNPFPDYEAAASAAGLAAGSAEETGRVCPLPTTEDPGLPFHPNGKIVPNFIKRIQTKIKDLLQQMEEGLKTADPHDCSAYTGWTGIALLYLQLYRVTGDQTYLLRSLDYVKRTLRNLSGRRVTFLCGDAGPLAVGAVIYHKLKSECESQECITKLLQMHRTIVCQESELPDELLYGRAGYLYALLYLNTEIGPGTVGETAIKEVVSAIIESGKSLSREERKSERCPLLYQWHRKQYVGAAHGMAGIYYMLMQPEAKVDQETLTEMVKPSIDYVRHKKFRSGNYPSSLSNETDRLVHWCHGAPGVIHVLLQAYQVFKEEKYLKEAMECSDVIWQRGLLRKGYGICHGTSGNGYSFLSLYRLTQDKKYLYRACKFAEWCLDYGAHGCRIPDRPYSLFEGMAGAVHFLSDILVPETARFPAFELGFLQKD
Description: RAW 264.7 macrophages were cultured with DMEM (Mediatech, Manassas, Va.) containing 10% fetal bovine serum (FBS) in two flasks and grown until 60-70% confluence. RAW 264.7 macrophages in one flask were treated with abscisic acid (SIGMA-ALDRICH) for 20 minutes. RAW 264.7 macrophages in the other flask without ABA were used as control. Proteins were extracted from Raw 264.7 Macrophage using Radio-Immunoprecipitation Assay buffer (RIPA) (SIGMA-ALDRICH) with inhibitors. 10% SDS-PAGE was applied to analyze the proteins in Bio-Rad mini-gel box running condition. For Western blotting, proteins were electrotransferred to nitrocellulose by standard methods along with the Presicion Plus Kaleidoscope Standard (BIO-RAD). Filters were blocked by 5% BSA in TBS-Tween for 1 hour, followed by incubation with rabbit anti-LANCL2 primary antibody (SIGMA-ALDRICH) in TBS-Tween for 6 hours at room temperature. Goat anti-rabbit horseradish peroxidase-conjugated secondary antibodie (Santa Cruz Biotechnology) was used 1:2,000 in TBS-Tween, and protein bands were detected with Immun-Star™ chemiluminescent substrate (BIO-RAD). […] Donkey anti-rat horseradish peroxidase-conjugated secondary antibodie (Santa Cruz Biotechnology) was used 1:2,000 in TBS-Tween, and protein bands were detected with Immun-Star™ chemiluminescent substrate (BIO-RAD).

[5] = 0.5, 10 and 20 mg/kg, day 7 of DSS
[6] = highest concentration, flow cytometry

## O=C(Nc1cccc(-c2nc3ccccc3[nH]2)c1)c1ccc(C(=O)Nc2cccc(-c3nc4ccccc4[nH]3)c2)cc1 [NSC61610, 1-N,4-N-bis[3-(1H-benzimidazol-2-yl)phenyl]benzene-1,4-dicarboxamide]
PPAR γ
  PPAR γ expression (dual luciferase reporter): significantly elevated
[1]; 20 mg/kg BW for 6 days during DSS challenge, vs untreated control mice
  disease activity index: significantly reduced
[1]; PPAR γ-expressing mice with DSS colitis, 20 mg/kg
  macroscopic inflammatory lesions: significantly reduced
[1]; T cell-specific PPAR γ null mice with DSS colitis, 20 mg/kg
  macroscopic inflammatory lesions: significantly reduced
[1]; macrophage-specific PPAR γ null mice, 20 mg/kg
  effect on IBD in MLNs and spleens: abrogated
[2]; day 13 post-infection, irrespective of genotype
  antigen-specific proliferation of splenocytes stimulated ex vivo with live virus: higher
[2]; infected mice, 20 mg/kg
  extent of lung congestion and hyperemia (macroscopic and histological score): reduced
[2]; infected mice, 20 mg/kg orogastric gavage daily, vs untreated infected mice
  influenza-related weight loss: lower weight loss
[2]; infected treated mice, by day 13
  body weight: began to gain weight
[3]; 0.5, 10 and 20 mg/kg BW orogastric gavage, 7 days, 2.5% DSS, vs untreated control mice
  disease activity index (DAI): significantly reduced
[3]; [5]
  gross inflammation in MLN: significantly reduced
  gross inflammation in colon: significantly reduced
  gross inflammation in spleen: significantly reduced
[3]; flow cytometry
  numbers of mesenteric lymph node (MLN) Treg: No effect
  percentage of F4/80+CD11b+ macrophages in the colonic lamina propria: reduced
  percentage of Treg cells in blood: significantly increased
  percentage of Treg cells in colon: significantly increased
  percentage of Treg cells in spleen: significantly increased
[3]; [6]
  percentage of CD4+ IL10+ T cells in MLN: significantly increased
  percentage of CD4+ IL10+ T cells in blood: significantly increased
  percentage of CD4+ IL10+ T cells in colon: significantly increased
  percentage of CD4+ IL10+ T cells in spleen: significantly increased
[3]; maximum dose 20 mg/kg
  PPAR γ gene expression in colon: enhanced PPAR γ gene expression significantly
[3]; mice with DSS colitis
  epithelial erosion (colon histology): significantly reduced
  leukocyte infiltration (colon histology): significantly reduced
  mucosal thickening (colon histology): significantly reduced
[3]; real-time quantitative PCR
  colonic expression of IL-6: significantly lowered
  colonic expression of MCP-1: significantly lowered
  colonic expression of TNF-α: significantly lowered
[3]; real-time quantitative PCR, vs control mice
  PPAR γ gene expression in colon: increased

## CC1=CC(=O)CC(C)(C)[C@@]1(O)/C=C/C(C)=C\C(=O)O [abscisic acid, [S-(Z,E)]-5-(1-Hydroxy-2,6,6-trimethyl-4-oxo-2-cyclohexen-1-yl)-3-methyl-2,4-pentanedienoic acid]
[4]
  direct binding to the LBD of PPAR γ: does not bind directly
LANCL2
  band with anti-ABA antibody at the LANCL2 location on the membrane: clear band
